The values below are quoted from earlier work in US20180162913A1, “METHODS FOR PO[…] IMMUNE RESPONSE USING DEPOT-FORMING AND NON-DEPOT-FORMING VACCINES” (IMMUNOVACCINE TECHNOLOGIES INC., priority 2015, published 2018).

Each structure is given as a SMILES string.

Take `O=P1(N(CCCl)CCCl)NCCCO1` (stereo not drawn) [Cyclophosphamide (CPA), N,N-bis(2-chloroethyl)-1,3,2-oxazaphosphinan-2-amine 2-oxide]: where the note is “in vivo”, the “bioavailability, intravenous infusion versus parenteral and oral administration” value is “little difference in bioavailability”. Where the note is “patients”, the “Total systemic clearance of CPA and its metabolites” value was 5 to 9 h; the “peak plasma levels of the parent, variation between patients” value was 3 to 11 h.
